In patent US20030176436A1, “Novel heterocyclic compounds as selective bacterial DHFR inhibitors and their uses thereof” (priority 2001, published 2003) one finds MIC and Ki data, which are given here for ten molecules.

One assay concerns S. cerevisiae. In words: Microdilution susceptibility test (MIC), yeast as indicator of cytotoxicity. The assay is classed as cell-based. The note with it: Saccharomyces cerevisiae; Table 2; 90% inhibition of growth. The text has this:
The following table of compounds of one aspect of the invention have potent antimicrobial activity against S. aureus bacteria and are anticipated to have physical-chemical properties similar to those of orally absorbed and bioavailable drugs and drug-like compounds. Antibacterial activity for a variety of bacterial species are shown (S. aureus, S. pneumoniae, E. faecalis, M. catarrhalis, and H. influenzae). The yeast cell (S. cerevisiae) in this panel of organisms is an indicator of potential cytotoxicity in mammalian cells.
(§1) Stock solutions of tested compounds were prepared in N,N-dimethylformamide (DMF) at a concentration of 5 mg/mL. Working solutions of the tested compounds were then prepared from the stock solutions, in Mueller-Hinton broth (MHB) with a starting concentration of 64 μg/mL.
(§2) Microplate wells were filled with two-fold dilutions of test compound (50 μl), starting with 64 μg/ml. Wells were then filled with 50 μl of bacterial inoculum (final volume: 100 μl/well). The plates were incubated at 37° C. for 18-24 hours (S. pneumoniae was grown in a CO2-enriched atmosphere).
(In general: Dilution methods test growth across graded concentrations, often in twofold steps.)

Another assay has as its system E. faecalis. In words: Microdilution antimicrobial susceptibility test (MIC). The conditions noted are these: Enterococcus faecalis; Table 2; 90% inhibition of growth. The assay is classed as cell-based. As to the method: as §1
(§3) Bacterial inocula were prepared from overnight culture (i.e., one fresh colony from agar plate in 5 ml MHB; H. influenzae was grown in MHB with the addition of yeast extract, haematin, and NAD), centrifuged 2×5 min/3000 rpm (for S. pneumoniae and H. influenzae, 2×10 min/3000 rpm), and dispensed in 5 ml of fresh MHB each time, such that the bacterial suspension is diluted to obtain 100 colony forming units (cfu) in a microplate well (100 μl total volume).
as §2

The next assay concerns M. catarrhalis. Described as above. The assay is classed as cell-based. The note with it: Moraxella catarrhalis; Table 2; 90% inhibition of growth. On the procedure: as §1, §3, §2
Another assay relates to P. aeruginosa. The description is as above. The assay is classed as cell-based. The note with it: Pseudomonas aeruginosa; Table 2; 90% inhibition of growth. On the procedure:
as §1, §3, §2

The test system of another assay is S. pneumoniae. The assay is described as above. The conditions noted are these: Streptococcus pneumoniae; Table 2; 90% inhibition of growth. The assay is classed as cell-based. As to the method: as §1, §3, §2
The test system of a further assay is S. aureus. Described as above. The assay is classed as cell-based. The conditions noted are these: Staphylococcus aureus. On the procedure:
as §1, §3, §2

The subject of a further assay is H. influenzae. The assay is described as above. The assay is classed as cell-based. The note with it: Haemophilus influenzae; Table 2; 90% inhibition of growth; read-out: MIC H. influenzae. On the procedure: as §1, §3, §2
In a further assay the test system is E. coli. The assay is described as above. The note with it: Escherichia coli; Table 2; 90% inhibition of growth. The assay is classed as cell-based. As to the method: as §1, §3, §2
In a further assay the target is T1, bacterial DHFR (bDHFR) (Escherichia coli, UniProt P0ABQ4).
T1 construct: gift of Eric Brown, McMaster University
In words: DHFR enzyme assay, Ki determination, bacterial DHFR. The assay is classed as biochemical, E. coli. As to the method:
Human and Bacterial DHFR: E. coli DHFR was kindly provided by Eric Brown of MacMaster University.
(§4) Dihydrofolic acid and NADPH were purchased from Sigma. Enzyme assays were adapted for microtitre format from a previously published procedure (2, 3). All assays were performed in a 250 μl volume in 96-well microtitre plates. Typical assays consisted of 20 nM DHFR (human or E. coli), 100 μM NADPH, and 50 μM dihydrofolic acid in 100 mM HEPES pH 8, 10 mM KCl, and 10 mM MgCl2. The assay was monitored spectrophotometrically for the conversion of NADPH to NADP+, which results in a decrease in absorbance at 340 nm.
The reaction was initiated by the addition of 125 μl of 100 μM dihydrofolic acid. The final concentrations in the assay were 20 nM DHFR, 100 μM NADPH, 50 μM dihydrofolic acid, and a range of 500 μM to 20 nM inhibitor compound. The final DMSO concentration was 2% of the total volume. Reactions were monitored as described above.

The target in the next assay is T2, human DHFR (hDHFR) (Homo sapiens, UniProt P00374).
T2 construct: result in the amplification of a 186 amino acid hDHFR coding region; made in house; host or cells: E. coli Top10
T2 sequence (P00374 1-187): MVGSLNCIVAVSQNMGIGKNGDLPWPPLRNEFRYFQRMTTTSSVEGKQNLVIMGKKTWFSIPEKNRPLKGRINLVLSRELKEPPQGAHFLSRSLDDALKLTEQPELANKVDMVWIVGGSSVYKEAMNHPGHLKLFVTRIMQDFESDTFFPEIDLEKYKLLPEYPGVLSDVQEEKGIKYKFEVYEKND
Put plainly: DHFR enzyme assay, Ki determination, human DHFR. The assay is classed as biochemical. The note with it: Table 3. As to the method: The human DHFR cDNA was cloned by PCR from the Human Universal Quick-clone™ cDNA purchased from Clontech.
The PCR fragment was digested with restriction enzymes NdeI and HindIII, and then ligated into a derivative of the pKK223-3 expression vector (Amersham Pharmacia). The final expression vector (pFW96.2) was transformed into E. coli Top10 F40 and hDHFR protein was induced by the addition of 1 mM IPTG followed by incubation at 37° C. for 4 hrs. Recombinant human DHFR was purified based on a previously published procedure (2).
as §4
Five microliters of inhibitor compound in DMSO was added to 120 μl of enzyme solution (40 nM DHFR and 200 μM NADPH). The reaction was initiated by the addition of 125 μl of 100 μM dihydrofolic acid. The final concentrations in the assay were 20 nM DHFR, 100 μM NADPH, 50 μM dihydrofolic acid, and a range of 500 μM to 20 nM inhibitor compound. The final DMSO concentration was 2% of the total volume. Reactions were monitored as described above.
V=(Vmax[S])/(Km(1+I/Ki)+[S]), where S=dihydrofolate, Km=Michaelis constant for dihydrofolate, I=inhibitor concentration.

Setting [1] is: Table 2, 90% inhibition of growth, read-out: MIC S. aureus.

Molecules are shown by their SMILES. ≈ marks a conversion by molar mass, not a printed value. Read-outs that look alike come from different tables or passages of the source. Where only a bound is given, the exact number is not on record here.

As to `Nc1nc(N)c2nc(CNc3cccc(OCc4ccccc4)c3)cnc2n1` [Compound 16], the MIC was over 64 µg/mL in the assay on S. cerevisiae; under 2 µg/mL in the assay with E. faecalis; under 2 µg/mL in the assay with M. catarrhalis; over 64 µg/mL in the assay on P. aeruginosa; under 2 µg/mL in the assay on S. pneumoniae; under 2 µg/mL with S. aureus (setting [1]). Besides, the MIC with H. influenzae and against E. coli was over 64 µg/mL throughout. The Ki on bacterial DHFR (bDHFR) (Table 3, read-out: bDHFR Ki) is under 0.1 µM; at human DHFR (hDHFR) it was over 5000 nM.
Take `CN(Cc1cnc2nc(N)nc(N)c2n1)c1ccc(C(=O)NCc2ccncc2)cc1` [Compound 5]: the MIC in the assay with S. cerevisiae was over 64 µg/mL; in the assay on E. faecalis it was 2 to 8 µg/mL (≈ 4.81 to 19.3 µM); with M. catarrhalis it was 2 to 8 µg/mL (≈ 4.81 to 19.3 µM); in the assay with P. aeruginosa, over 64 µg/mL; in the assay on S. pneumoniae it was 2 to 8 µg/mL (≈ 4.81 to 19.3 µM); with S. aureus (setting [1]) it was 16 to 64 µg/mL (≈ 38.5 to 154 µM). Besides, the MIC was 2 to 8 µg/mL (≈ 4.81 to 19.3 µM) with H. influenzae and over 64 µg/mL with E. coli. In addition, the Ki at bacterial DHFR (bDHFR) (Table 3, read-out: bDHFR Ki) is under 0.1 µM; at human DHFR (hDHFR) it was 500 to 999 nM.
In the case of `CN(Cc1cnc2nc(N)nc(N)c2n1)c1ccc(C(=O)Nc2ccc(O)cc2)cc1` [Compound 1], the MIC against S. cerevisiae is over 64 µg/mL; with E. faecalis, 16 to 64 µg/mL (≈ 38.4 to 154 µM); against M. catarrhalis, 2 to 8 µg/mL (≈ 4.8 to 19.2 µM); in the assay with P. aeruginosa, over 64 µg/mL; in the assay on S. pneumoniae, under 2 µg/mL; with S. aureus (setting [1]), 16 to 64 µg/mL (≈ 38.4 to 154 µM). Also, the MIC with H. influenzae is 2 to 8 µg/mL (≈ 4.8 to 19.2 µM); in the assay with E. coli, over 64 µg/mL. Further, the Ki at bacterial DHFR (bDHFR) (Table 3, read-out: bDHFR Ki) is under 0.1 µM; on human DHFR (hDHFR) it was 500 to 999 nM.
Regarding `Nc1nc(N)c2nc(CNc3cccc([N+](=O)[O-])c3)cnc2n1` [Compound 7], the MIC was over 64 µg/mL against S. cerevisiae; under 2 µg/mL in the assay on E. faecalis; under 2 µg/mL in the assay on M. catarrhalis; over 64 µg/mL against P. aeruginosa; under 2 µg/mL in the assay on S. pneumoniae; under 2 µg/mL in the assay on S. aureus (setting [1]). Besides, the MIC is under 2 µg/mL in the assay with H. influenzae and over 64 µg/mL against E. coli. The Ki is 0.1 to 0.499 µM at bacterial DHFR (bDHFR) (Table 3, read-out: bDHFR Ki) and over 5000 nM on human DHFR (hDHFR).
Consider `Nc1nc(N)c2nc(CNc3ccccc3)cnc2n1` [Compound 6], for which the MIC is over 64 µg/mL in the assay on S. cerevisiae; 2 to 8 µg/mL (≈ 7.48 to 29.9 µM) in the assay on E. faecalis; 2 to 8 µg/mL (≈ 7.48 to 29.9 µM) against M. catarrhalis; over 64 µg/mL in the assay with P. aeruginosa; 2 to 8 µg/mL (≈ 7.48 to 29.9 µM) in the assay with S. pneumoniae; 2 to 8 µg/mL (≈ 7.48 to 29.9 µM) in the assay on S. aureus (setting [1]). The values for the MIC in the assay on H. influenzae and in the assay with E. coli were 2 to 8 µg/mL (≈ 7.48 to 29.9 µM) and over 64 µg/mL, respectively. Also, the Ki is 1 to 5 µM on bacterial DHFR (bDHFR) (Table 3, read-out: bDHFR Ki) and over 5000 nM on human DHFR (hDHFR).
For `CN(Cc1cnc2nc(N)nc(N)c2n1)c1ccc(C(=O)NCCCCN)cc1` [Compound 2], the Ki at bacterial DHFR (bDHFR) (Table 3, read-out: bDHFR Ki) lay in the range of 0.1 to 0.499 µM; on human DHFR (hDHFR), 1000 to 5000 nM.
For `Nc1nc(N)c2nc(COc3cc([N+](=O)[O-])ccc3N)cnc2n1` [Compound 13] the same measures were 0.5 to 0.999 µM and over 5000 nM.
Regarding `Nc1nc(N)c2nc(CNc3ccc([N+](=O)[O-])cc3O)cnc2n1` [Compound 12], the MIC is over 64 µg/mL against S. cerevisiae; 16 to 64 µg/mL (≈ 48.7 to 195 µM) with M. catarrhalis; over 64 µg/mL against P. aeruginosa; under 2 µg/mL against S. pneumoniae; over 64 µg/mL in the assay with S. aureus (setting [1]); 2 to 8 µg/mL (≈ 6.09 to 24.4 µM) with H. influenzae. Further, in the assay with E. coli, the MIC was over 64 µg/mL. The Ki is 0.1 to 0.499 µM at bacterial DHFR (bDHFR) (Table 3, read-out: bDHFR Ki) and 1000 to 5000 nM at human DHFR (hDHFR).
As to `COC(=O)c1ccc(N(C)Cc2cnc3nc(N)nc(N)c3n2)cc1` [Compound 17], the MIC is over 64 µg/mL in the assay with S. cerevisiae; under 2 µg/mL in the assay on E. faecalis; under 2 µg/mL in the assay on M. catarrhalis; over 64 µg/mL in the assay with P. aeruginosa; under 2 µg/mL in the assay on S. pneumoniae; under 2 µg/mL in the assay with S. aureus (setting [1]). Also, the results for the MIC in the assay on H. influenzae and against E. coli were under 2 µg/mL and over 64 µg/mL, respectively. The Ki on bacterial DHFR (bDHFR) (Table 3, read-out: bDHFR Ki) was under 0.1 µM.
In the case of `C[C@H](c1cccc2ccccc12)N(C)c1ncc2c(N)nc(N)nc2n1` [Compound 22], in the assay on S. aureus (MIC, average, read-out: S. aureus (μg/ml) avg), the MIC was under 0.125 µg/mL. In addition, the Ki at bacterial DHFR (bDHFR) (Table 3, read-out: bDHFR Ki) is under 0.002 µM; at bacterial DHFR (bDHFR) (average, read-out: bDHFR Ki/(μM) avg), 0.002 µM; on human DHFR (hDHFR), over 75000 nM.
